# Patent US8518980B2, “Treatment of Duchenne muscular dystrophy” (Summit Corporation PLC, priority 2006, dated 2013)
# Test system: Utrophin A promoter linked to a luciferase reporter gene (H2K/mdx/Utro A reporter cell line)
# Assay: Luciferase reporter assay (murine H2K cells)
# Settings: Mus musculus, H2K mdx
row,SMILES,activity at 10 µM [%]
1,"Cc1ccc2oc(-c3ccc(Cl)c(NC(=O)c4ccco4)c3)nc2c1 [Example 677, N-(2-chloro-5-(5-methylbenzo[d]oxazol-2-yl)phenyl)furan-2-carboxamide]",201 to 300
2,"Nc1cccc(-c2nc3cc(Cl)ccc3o2)c1 [Example 622, 3-(5-chlorobenzo[d]oxazol-2-yl)aniline]",> 401
3,"Cc1ccc2nc(-c3ccc(N)cc3)oc2c1 [Example 506, 4-(6-methylbenzo[d]oxazol-2-yl)aniline]",< 200
4,"COc1ccc(-c2nc3ccccc3s2)cc1NC(C)=O [Example 542, N-(5-(benzo[d]thiazol-2-yl)-2-methoxyphenyl)acetamide]",201 to 300
5,"Cc1ccc2[nH]c(-c3sc4nc(C)ccc4c3N)nc2c1 [Example 632, 6-methyl-2-(5-methyl-1H-benzo[d]imidazol-2-yl)thieno[2,3-b]pyridin-3-amine]",> 401
6,"Clc1ccc(OCc2nc3ccccc3[nH]2)cc1 [Example 495, 2-((4-chlorophenoxy)methyl)-1H-benzo[d]imidazole]",< 200
7,"Cc1nc2ccc(NC(=O)Nc3ccccc3)cc2o1 [Example 466, 1-(2-methylbenzo[d]oxazol-6-yl)-3-phenylurea]",< 200
8,"Nc1ccc2nc(-c3cccc(Cl)c3)oc2c1 [Example 598, 2-(3-Chlorophenyl)benzo[d]oxazol-6-amine]",301 to 400
9,"O=[N+]([O-])c1ccc2nc(-c3ccccc3)[nH]c2c1 [Example 604, 6-Nitro-2-phenyl-1H-benzo[d]imidazole]",301 to 400
10,"Cc1ccc2sc(NC(=O)NC(=O)c3c(Cl)cccc3Cl)nc2c1 [Example 462, 2,6-dichloro-N-(5-methylbenzo[d]thiazol-2-ylcarbamoyl)benzamide]",< 200
11,"Nc1ccc(-c2nc3ccccc3o2)cc1 [Example 478, 4-(benzo[d]oxazol-2-yl)aniline]",201 to 300
12,"Cc1ccc(OCc2nc3ccccc3[nH]2)cc1 [Example 531, 2-(p-tolyloxymethyl)-1H-benzo[d]imidazole]",201 to 300
13,"Cc1ccc(-c2nc3cc(N)ccc3o2)c(Cl)c1 [Example 527, 2-(2-chloro-4-methylphenyl)benzo[d]oxazol-5-amine]",201 to 300
14,"O=C(CSc1nc[nH]n1)Nc1ccc(-c2nc3ccccc3s2)cc1 [Example 685, 2-(1H-1,2,4-triazol-3-ylthio)-N-(4-(benzo[d]thiazol-2-yl)phenyl)acetamide]",201 to 300
15,"CCn1c(C)nc2cc(-c3ccccc3)ccc21 [Example 634, 1-ethyl-2-methyl-5-phenyl-1H-benzo[d]imidazole]",301 to 400
16,"Cc1ccc2nc(-c3ccc(C)c(N)c3)oc2c1 [Example 635, 2-methyl-5-(6-methylbenzo[d]oxazol-2-yl)aniline]",301 to 400
17,"Cc1ccc2oc(-c3ccc([N+](=O)[O-])cc3)nc2c1 [Example 505, 5-methyl-2-(4-nitrophenyl)benzo[d]oxazole]",201 to 300
18,"Clc1ccc(OCc2nc3ccccc3[nH]2)c(Cl)c1 [Example 461, 2-((2,4-dichlorophenoxy)methyl)-1H-benzo[d]imidazole]",301 to 400
19,"Nc1ccc2oc(-c3cccc4ccccc34)nc2c1 [Example 577, 2-(naphthalen-1-yl)benzo[d]oxazol-5-amine]",< 200

row,SMILES,activity at 10 µM [%]
1,"CCc1ccc2oc(-c3cc(N)ccc3O)nc2c1 [Example 551, 4-amino-2-(5-ethylbenzo[d]oxazol-2-yl)phenol]",< 200
2,"Cc1cc(-c2nc3ccccc3s2)ccc1[N+](=O)[O-] [Example 599, 2-(3-Methyl-4-nitrophenyl)benzo[d]thiazole]",> 401
3,"c1ccc(OCc2nc3ccccc3s2)cc1 [Example 633, 2-(phenoxymethyl)benzo[d]thiazole]",301 to 400
4,"CC(=O)Nc1cccc(-c2ccc3oc(-c4ccc(Cl)cc4)nc3c2)c1 [Example 575, N-(3-(2-(4-chlorophenyl)benzo[d]oxazol-5-yl)phenyl)acetamide]",> 401
5,"Cc1cc(C)cc(-c2nc3cc(N)ccc3o2)c1 [Example 482, 2-(3,5-dimethylphenyl)benzo[d]oxazol-5-amine]",< 200
6,"c1csc(-c2nc3ccccc3[nH]2)c1 [Example 463, 2-(thiophen-2-yl)-1H-benzo[d]imidazole]",< 200
7,"Clc1ccc(-c2nc3ccccc3s2)c(Cl)c1 [Example 595, 2-(2,4-Dichlorophenyl)benzo[d]thiazole]",201 to 300
8,"O=C(Nc1ccc(-c2nc3ccccc3s2)cc1)C1CCCO1 (stereo not drawn) [Example 680, N-(4-(benzo[d]thiazol-2-yl)phenyl)tetrahydrofuran-2-carboxamide]",201 to 300
9,"COc1ccc(-c2nc3cc(N)ccc3o2)cc1 [Example 512, 2-(4-methoxyphenyl)benzo[d]oxazol-5-amine]",< 200
10,"Nc1ccc(-c2nc3ccccc3o2)c(O)c1 [Example 484, 5-amino-2-(benzo[d]oxazol-2-yl)phenol]",201 to 300
11,"Cc1ccc2sc(-c3ccc(NC(=O)c4cc(-n5cnnc5)ccc4Cl)cc3)nc2c1 [Example 688, 2-chloro-N-(4-(5-methylbenzo[d]thiazol-2-yl)phenyl)-5-(4H-1,2,4-triazol-4-yl)benzamide]",201 to 300
12,"Cc1ccc2nc(-c3ccc(N)cc3)sc2c1 [Example 664, 4-(6-methylbenzo[d]thiazol-2-yl)aniline]",201 to 300
13,"CN(C)c1ccc(-c2nc3ccccc3[nH]2)cc1 [Example 498, 4-(1H-benzo[d]imidazol-2-yl)-N,N-dimethylaniline]",< 200
14,"Cc1ccc2[nH]c(-c3ccccc3N)nc2c1 [Example 554, 2-(5-methyl-1H-benzo[d]imidazol-2-yl)aniline]",301 to 400
15,"CC(=O)Nc1ccc(-c2nc3ccccc3[nH]2)cc1 [Example 591, N-(4-(1H-Benzo[d]imidazol-2-yl)phenyl)acetamide]",301 to 400
16,"CCNC(=O)Nc1ccc2[nH]c(C(C)(C)C)cc2c1 [Example 576, 1-(2-tert-butyl-1H-indol-5-yl)-3-ethylurea]",< 200
17,"Clc1ccc(OCc2nc3ccccc3n2Cc2ccccc2Cl)c(Cl)c1 [Example 465, 1-(2-chlorobenzyl)-2-((2,4-dichlorophenoxy)methyl)-1H-benzo[d]imidazole]",< 200
18,"CCC(C)c1ccc2oc(-c3ccc(N)cc3)nc2c1 (stereo not drawn) [Example 609, 4-(5-Sec-butylbenzo[d]oxazol-2-yl)aniline]",301 to 400
19,"Cc1nc2ccc(NC(=O)NC(=O)c3ccccc3Cl)cc2o1 [Example 468, 2-chloro-N-(2-methylbenzo[d]oxazol-6-ylcarbamoyl)benzamide]",< 200

row,SMILES,activity at 10 µM [%]
1,"Cc1ccc2nc(NC(=O)c3ccco3)sc2c1 [Example 652, N-(6-methylbenzo[d]thiazol-2-yl)furan-2-carboxamide]",301 to 400
2,"Cc1cc2nc(-c3cccc(NC(=O)c4ccco4)c3)oc2cc1C [Example 623, N-(3-(5,6-dimethylbenzo[d]oxazol-2-yl)phenyl)furan-2-carboxamide]",> 401
3,"Nc1c(C(=O)Nc2ccc(F)cc2)sc2nc3c(cc12)CCC3 [Example 628, 3-amino-N-(4-fluorophenyl)-6,7-dihydro-5H-cyclopenta[e]thieno[2,3-b]pyridine-2-carboxamide]",> 401
4,"Nc1ccc2oc(-c3ccccc3F)nc2c1 [Example 569, 2-(2-fluorophenyl)benzo[d]oxazol-5-amine]",301 to 400
5,"C(=C\c1nc2ccccc2[nH]1)/c1ccccc1 [Example 547, (E)-2-styryl-1H-benzo[d]imidazole]",301 to 400
6,"Cc1ccc(C)c(OCc2nc3ccccc3[nH]2)c1 [Example 548, 2-((2,5-dimethylphenoxy)methyl)-1H-benzo[d]imidazole]",< 200
7,"Nc1ccc(Oc2ccc(-c3nc4ccccc4[nH]3)cc2)cc1 [Example 557, 4-(4-(1H-benzo[d]imidazol-2-yl)phenoxy)aniline]",> 401
8,"COc1ccc(C(=O)Nc2ccc(-c3nc4ccccc4[nH]3)cc2)cc1OC [Example 494, N-(4-(1H-benzo[d]imidazol-2-yl)phenyl)-3,4-dimethoxybenzamide]",< 200
9,"Cc1ccc2[nH]c(-c3ccc(N)cc3)nc2c1 [Example 532, 4-(5-methyl-1H-benzo[d]imidazol-2-yl)aniline]",< 200
10,"Nc1cc(-c2nc3ccccc3s2)ccc1Cl [Example 592, 5-(Benzo[d]thiazol-2-yl)-2-chloroaniline]",> 401
11,"CC(=O)Nc1cccc(-c2nc3ccccc3[nH]2)c1 [Example 503, N-(3-(1H-benzo[d]imidazol-2-yl)phenyl)acetamide]",< 200
12,"Cn1c(CNc2ccc(Cl)cc2)nc2ccccc21 [Example 666, 4-chloro-N-((1-methyl-1H-benzo[d]imidazol-2-yl)methyl)aniline]",201 to 300
13,"COc1ccc2oc(-c3cccc(N)c3)nc2c1 [Example 630, 3-(5-methoxybenzo[d]oxazol-2-yl)aniline]",> 401
14,"CC(C)C(=O)Nc1ccc(-c2nc3ccccc3s2)cc1 [Example 651, N-(4-(benzo[d]thiazol-2-yl)phenyl)isobutyramide]",301 to 400
15,"O=[N+]([O-])c1ccc2oc(-c3ccc(F)cc3)nc2c1 [Example 525, 2-(4-fluorophenyl)-5-nitrobenzo[d]oxazole]",< 200
16,"CCOCCC(=O)Nc1ccc(-c2nc3ccc(C)cc3s2)cc1 [Example 660, 3-ethoxy-N-(4-(6-methylbenzo[d]thiazol-2-yl)phenyl)propanamide]",301 to 400
17,"Cc1ccc2oc(-c3cccs3)nc2c1 [Example 612, 5-Methyl-2-(thiophen-2-yl)benzo[d]oxazole]",201 to 300
18,"COc1ccc(-c2nc3ccccc3n2C)cc1OC [Example 521, 2-(3,4-dimethoxyphenyl)-1-methyl-1H-benzo[d]imidazole]",< 200
19,"CN(C)S(=O)(=O)c1ccc2nc(NC(=O)c3cccs3)sc2c1 [Example 683, N-(6-(N,N-dimethylsulfamoyl)benzo[d]thiazol-2-yl)thiophene-2-carboxamide]",201 to 300
